According to ChEMBL document CHEMBL5390314, “Repurposing Azoles to Resolve Serotogenic Toxicity Associated with Linezolid to Combat Multidrug-Resistant Tuberculosis” (ACS Med Chem Lett, 2023):
In brackets after ≈: the same amount, converted by molar mass.

Legend:
Type in all cases: functional
Details in all cases: time 7 day
[1] = system: Mycobacterium tuberculosis; assay: Anti-mycobacterial activity against Isoniazid resistant Mycobacterium tuberculosis clinical isolate harbouring inhA mutant assessed as bacterial growth inhibition incubated for 7 days by microplate alamar blue assay
[2] = system: Mycobacterium tuberculosis; assay: Anti-mycobacterial activity against Isoniazid resistant Mycobacterium tuberculosis clinical isolate harbouring katG S315T mutant assessed as bacterial growth inhibition incubated for 7 days by microplate alamar blue assay
[3] = system: Mycobacterium tuberculosis; assay: Anti-mycobacterial activity against Rifampicin resistant Mycobacterium tuberculosis clinical isolate harbouring rpoB S531L mutant assessed as bacterial growth inhibition incubated for 7 days by microplate alamar blue assay
[4] = system: Mycobacterium tuberculosis; assay: Anti-mycobacterial activity against isoniazid, rifampicin, ethambutol and pyrazinamide-resistant Mycobacterium tuberculosis clinical isolate harbouring inhA/katG/rpoB H526D mutant assessed as bacterial growth inhibition incubated for 7 days by microplate alamar blue assay

SMILES: Clc1ccc(COC(Cn2ccnc2)c2ccc(Cl)cc2Cl)c(Cl)c1 (stereo not given) [MICONAZOLE]
- MIC50 [1]: 0.28 µM (≈ 0.117 µg/mL)
- MIC90 [1]: 0.78 µM (≈ 0.325 µg/mL)
- MIC50 [2]: 3.58 µM (≈ 1.49 µg/mL)
- MIC90 [2]: 6.25 µM (≈ 2.6 µg/mL)
- MIC50 [3]: 2.74 µM (≈ 1.14 µg/mL)
- MIC90 [3]: 6.25 µM (≈ 2.6 µg/mL)
- MIC50 [4]: 4.42 µM (≈ 1.84 µg/mL)
- MIC90 [4]: 6.25 µM (≈ 2.6 µg/mL)

SMILES: NNC(=O)c1ccncc1 [ISONIAZID]
- MIC50 [1]: 0.98 µM (≈ 0.134 µg/mL)
- MIC90 [1]: 1.56 µM (≈ 0.214 µg/mL)
- MIC50 [2]: 11.06 µM (≈ 1.52 µg/mL)
- MIC90 [2]: 12.5 µM (≈ 1.71 µg/mL)
- MIC50 [3]: 23.03 µM (≈ 3.16 µg/mL)
- MIC90 [3]: 25 µM (≈ 3.43 µg/mL)
- MIC50 [4]: >100 µM
- MIC90 [4]: >100 µM

SMILES: CC(=O)NC[C@H]1CN(c2ccc(N3CCOCC3)c(F)c2)C(=O)O1 [LINEZOLID]
- MIC50 [1]: 0.12 µM (≈ 0.0405 µg/mL)
- MIC90 [1]: 0.39 µM (≈ 0.132 µg/mL)
- MIC50 [2]: 0.42 µM (≈ 0.142 µg/mL)
- MIC90 [2]: 1.56 µM (≈ 0.526 µg/mL)
- MIC50 [3]: 0.24 µM (≈ 0.081 µg/mL)
- MIC90 [3]: 0.78 µM (≈ 0.263 µg/mL)
- MIC50 [4]: 0.81 µM (≈ 0.273 µg/mL)
- MIC90 [4]: 1.56 µM (≈ 0.526 µg/mL)

SMILES: CO[C@H]1/C=C/O[C@@]2(C)Oc3c(C)c(O)c4c(O)c(c(/C=N/N5CCN(C)CC5)c(O)c4c3C2=O)NC(=O)/C(C)=C\C=C\[C@H](C)[C@H](O)[C@@H](C)[C@@H](O)[C@@H](C)[C@H](OC(C)=O)[C@@H]1C [RIFAMPIN]
- MIC50 [1]: <0.04 µM
- MIC90 [1]: <0.04 µM
- MIC50 [2]: <0.04 µM
- MIC90 [2]: <0.04 µM
- MIC50 [3]: 28.15 µM (≈ 23.2 µg/mL)
- MIC90 [3]: 50 µM (≈ 41.1 µg/mL)
- MIC50 [4]: >100 µM
- MIC90 [4]: >100 µM

SMILES: Clc1ccccc1C(c1ccccc1)(c1ccccc1)n1ccnc1 [CLOTRIMAZOLE]
- MIC50 [1]: 0.17 µM (≈ 0.0586 µg/mL)
- MIC90 [1]: 0.78 µM (≈ 0.269 µg/mL)
- MIC50 [2]: 1.72 µM (≈ 0.593 µg/mL)
- MIC90 [2]: 3.12 µM (≈ 1.08 µg/mL)
- MIC50 [3]: 1.53 µM (≈ 0.528 µg/mL)
- MIC90 [3]: 3.12 µM (≈ 1.08 µg/mL)
- MIC50 [4]: 5.07 µM (≈ 1.75 µg/mL)
- MIC90 [4]: 6.25 µM (≈ 2.16 µg/mL)
